Results: patent US20140329868A1, “METHODS FOR TREATING HYPERTENSION” (TAKEDA PHARMACEUTICALS U.S.A., INC., priority 2005, published 2014)

How the values were obtained:
[1] = test system: subjects having a systolic BP≧160 mmHg or diastolic BP≧95 mmHg (elevated blood pressure); experiment: Example 1: blood pressure change in subjects with elevated blood pressure, none taking antihypertensive agents at baseline (two double-blind studies); format: in vivo, human
Protocol: A total of 103 subjects (9 in the placebo group, 26 in each the 2-[3-cyano-4-(2-methylpropoxy)phenyl]-4-methylthiazole-5-carboxylic acid (hereinafter referred to as “febuxostat”) 80 mg and 120 mg once daily (hereinafter referred to as “QD”) groups, 10 in the febuxostat 240 mg QD group and 32 in the 4-hydroxy-3,4-pyrazolopyrimidine (hereinafter referred to as “allopurinol”) 300/100 mg QD group), having a systolic BP≧160 mmHg or diastolic BP≧95 mmHg, and thus considered to have “elevated blood pressure”, were examined. Allopurinol […] xanthine oxidoreductase inhibitor.
None of the above subjects were taking any antihypertensive agents at the baseline (start) of the study. These […] subjects were part of two (2) double-blind (hereinafter referred to as “DB”) studies. One study was of 28 weeks in duration. During this time, the subjects received 80 mg, 120 mg or 240 mg QD of febuxostat, placebo or allopurinol 300 or 100 mg QD, depending on the subject's renal function. The second study was 52 weeks in duration. During this time, the subjects received 80 mg or 120 mg QD of febuxostat or allopurinol 300 mg QD.

[2] = test system: subjects having a systolic BP≧160 mmHg or diastolic BP≧95 mmHg (elevated blood pressure); experiment: Example 2: blood pressure change in subjects with elevated blood pressure, none taking angiotensin-converting enzyme inhibitors (two double-blind studies); format: in vivo, human
Protocol: None of these subjects were taking any angiotensin-coverting enzyme inhibitors, but might have been taking some other type of antihypertensive drug at the baseline (start) of the study. These 158 subjects were part of two (2) DB studies. One study was of 28 weeks in duration during which subjects received 80 mg, 120 mg or 240 mg QD of febuxostat or placebo or allopurinol 300 or 100 mg QD, depending on the subject's renal function. The second study was 52 weeks in duration during which subjects received 80 mg or 120 mg QD of febuxostat or allopurinol 300 mg QD. […] A total of 52 weeks of treatment was completed by 15 subjects in the febuxostat 80 mg QD group, 9 in the febuxostat 120 mg QD group and 17 in the allopurinol 300/100 mg QD group. Because of the shorter duration of one of the two DB studies, no subject in the placebo and febuxostat 240 mg QD groups was treated for 52 weeks.

[3] = 80 mg QD, after 4 weeks of treatment
[4] = 80 mg QD, after 28 weeks of treatment
[5] = 80 mg QD, after 52 weeks of treatment
[6] = 120 mg QD, after 4 weeks of treatment
[7] = 120 mg QD, after 28 weeks of treatment
[8] = 120 mg QD, after 52 weeks of treatment
[9] = 240 mg QD, after 4 weeks of treatment
[10] = 240 mg QD, after 28 weeks of treatment

## Cc1nc(-c2ccc(OCC(C)C)c(C#N)c2)sc1C(=O)O [febuxostat, 2-[3-cyano-4-(2-methylpropoxy)phenyl]-4-methylthiazole-5-carboxylic acid]
[1]; [3]
  mean change from baseline for diastolic BP: −3.7 mmHg
  mean change from baseline for mean arterial BP: −5.2 mmHg
  mean change from baseline for systolic BP: −8.2 mmHg
[1]; [4]
  mean change from baseline for diastolic BP: −10.2 mmHg
  mean change from baseline for mean arterial BP: −11.1 mmHg
  mean change from baseline for systolic BP: −13.0 mmHg
[1]; [5]
  mean change from baseline for diastolic BP: −12.3 mmHg
  mean change from baseline for mean arterial BP: −12.7 mmHg
  mean change from baseline for systolic BP: −13.4 mmHg
[1]; [6]
  mean change from baseline for diastolic BP: −8.4 mmHg
  mean change from baseline for mean arterial BP: −9.3 mmHg
  mean change from baseline for systolic BP: −11.0 mmHg
[1]; [7]
  mean change from baseline for diastolic BP: −6.4 mmHg
  mean change from baseline for mean arterial BP: −9.0 mmHg
  mean change from baseline for systolic BP: −14.2 mmHg
[1]; [8]
  mean change from baseline for diastolic BP: −10.0 mmHg
  mean change from baseline for mean arterial BP: −15.2 mmHg
  mean change from baseline for systolic BP: −25.8 mmHg
[1]; [9]
  mean change from baseline for diastolic BP: −8.9 mmHg
  mean change from baseline for mean arterial BP: −9.3 mmHg
  mean change from baseline for systolic BP: −10.0 mmHg
[1]; [10]
  mean change from baseline for diastolic BP: −5.0 mmHg
  mean change from baseline for mean arterial BP: −6.0 mmHg
  mean change from baseline for systolic BP: −8.0 mmHg
[2]; [3]
  mean change from baseline for diastolic BP: −4.7 mmHg
  mean change from baseline for mean arterial BP: −5.5 mmHg
  mean change from baseline for systolic BP: −7.2 mmHg
[2]; [4]
  mean change from baseline for diastolic BP: −8.7 mmHg
  mean change from baseline for mean arterial BP: −9.2 mmHg
  mean change from baseline for systolic BP: −10.4 mmHg
[2]; [5]
  mean change from baseline for diastolic BP: −8.1 mmHg
  mean change from baseline for mean arterial BP: −8.5 mmHg
  mean change from baseline for systolic BP: −9.5 mmHg
[2]; [6]
  mean change from baseline for diastolic BP: −7.2 mmHg
  mean change from baseline for mean arterial BP: −7.6 mmHg
  mean change from baseline for systolic BP: −8.3 mmHg
[2]; [7]
  mean change from baseline for diastolic BP: −7.5 mmHg
  mean change from baseline for mean arterial BP: −8.7 mmHg
  mean change from baseline for systolic BP: −11.0 mmHg
[2]; [8]
  mean change from baseline for diastolic BP: −7.2 mmHg
  mean change from baseline for mean arterial BP: −11.3 mmHg
  mean change from baseline for systolic BP: −19.4 mmHg
[2]; [9]
  mean change from baseline for diastolic BP: −9.3 mmHg
  mean change from baseline for mean arterial BP: −12.5 mmHg
  mean change from baseline for systolic BP: −18.9 mmHg
[2]; [10]
  mean change from baseline for diastolic BP: −10.0 mmHg
  mean change from baseline for mean arterial BP: −12.9 mmHg
  mean change from baseline for systolic BP: −18.8 mmHg
